Experimental data: publication PMC12595484, “Optimizing multifunctional fluorescent ligands for intracellular labeling” (Proceedings of the National Academy of Sciences of the …, 2025)

What was measured:
[1] = Determination of lactone–zwitterion equilibrium constant KL–Z; format: physicochemical; settings: 1:1 (v/v) dioxane–water
Experimental: Detailed descriptions of the materials and methods are provided in the supporting information. Multifunctional rhodamine–HaloTag ligands (13HTL–16HTL and 18HTL–20HTL) were synthesized using palladium-catalyzed cross-coupling reactions to install 3-carboxyazetidine moieties onto rhodamine scaffolds, followed by amide bond formation with biotin–PEG2–NH2, (S)-JQ1–PEG2–NH2, or (R)-JQ1–PEG2–NH2. Spectroscopic properties (λabs, λem, ε, and Φf) were determined in 10 mM HEPES, pH 7.3. The lactone–zwitterion equilibrium constants (KL–Z) were measured in 1:1 (v/v) dioxane–water mixtures. Octanol–water distribution coefficients (logD7.4) were determined by miniaturized shake-flask partitioning experiments using PBS (pH 7.4) and 1-octanol. Cell culture experiments employed HEK293T, U2OS, and Neuro2a cells transfected with HaloTag fusion constructs and labeled with ligands (100 nM to 1 μM, 0.5 to 2 h at 37 °C), followed by fluorescence microscopy using confocal or lattice light-sheet microscopy. Affinity purification studies utilized streptavidin magnetic beads to capture biotin-labeled HaloTag conjugates, with analysis by SDS-PAGE and in-gel fluorescence detection. […]
Reported values for extinction coefficient (ε) are averages of at least two […]
Determination of KL−Z. The lactone−zwitterion equilibrium constant (KL−Z) was calculated as described previously2-4 using equation 1: […]
where εdw is the extinction coefficient of the dyes in a 1:1 (v/v) dioxane:water solvent mixture containing 0.01% (v/v) triethylamine; this dioxane−water mixture was chosen to give a large range of KL−Z values,3 and the triethylamine additive ensures the rhodamines are in the net neutral form.
The εmax is the maximal extinction coefficient, measured in 0.1% (v/v) trifluoroacetic acid in 2,2,2-trifluoroethanol (TFE) or ethanol. […]

[2] = system: OMP25–msGFP–HaloTag fusion protein in HEK293T cells; test: Pulse–chase HaloTag labeling efficiency, SDS–PAGE/in-gel fluorescence; format: cell-based; settings: 2 h, mean ± SEM
Experimental: PBS, 2% (v/v) SDS, 1% (v/v) Triton x-100, 10 mM EDTA, and protease inhibitors (2 mM PMSF, aprotinin, leupeptin, and pepstatin A). Samples were then incubated at 50 °C for 3–4 min after the addition of Laemmli sample buffer (SB; Bio-Rad, 1610747) with β-mercaptoethanol (Bio-Rad, 1610710). For protein detection, 10–20 µL of the sample was subjected to SDS-PAGE, using 10% Tris-Glycine gels (TGX) (Bio-Rad, 5671034) with Tris-Glycine buffer (Bio-Rad, 1610732). […]
Quantification of HaloTag labeling efficiency using in-gel fluorescence. HEK293T cells were cultured, incubated and transfected with pF(UG) hSyn HaloTag-TEV-4×GS-msGFP-mito using lipofectamine LTX reagent as described above. To examine saturation of HaloTag, we screened for fluorescence plateau using 1 μM of JF479-HaloTag ligand,4 JF549-HaloTag ligand (2HTL) and […]
(2HTL) and JF608-HaloTag ligand (3HTL) reached a fluorescence plateau, and they were chosen as saturating counter stains or “chase” dyes for examining the labeling efficiency of biotin-JF-HaloTag ligands (13HTL–16HTL). Next, we developed an in-gel assay to independently quantitate labeling efficiencies of 13HTL–16HTL. We used JF549-HaloTag ligand (2HTL) as chase for evaluating biotin-JF608-HaloTag ligand (14HTL), biotin-JF646-HaloTag ligand (15HTL), and biotin-JF635-HaloTag ligand (16HTL). We used JF608-HaloTag ligand (3HTL) as chase for evaluating biotin-JF549-HaloTag ligand (13HTL). Each experiment consisted of testing the biotin variants 13HTL–16HTL at 100 nM and 1 μM with an incubation time of 2 h and a chase labeling incubation of 1 μM for 0.5 h. The 0.5 h chase labeling period was included with the 2 h total incubation. Each experiment consisted of the following conditions: untransfected cells; (A) transduced, but no dye; (B) non-biotinylated variant of primary label at 1 μM for 0.5 h; (C) the nonbiotinylated version of the chase JF dye at 1 μM for 0.5 h; (D) 100 nM of the nonbiotinylated version of the primary label for 2 h; (E) 100 nM of the biotinylated version of primary label for 2 h; (F) 1 μM of the nonbiotinylated version of the primary label for 2 h; (G) 1 μM of the biotinylated version of primary label for 2 h; and (H) 1 μM of the non-biotinylated version of the chase JF dye at 1 μM for 2 h. This last condition H was the same as condition C but with a longer incubation (2 h vs. 0.5 h) to allow independent verification of the chase saturation using 0.5 h incubation. Samples D–G were incubated with a nonbiotinylated chase dye at 1 μM for 0.5 h. Cells were washed and protein lysates were harvested using Bio-Rad SDS-PAGE products as described above. Specifically, cells were lysed using protein lysis buffer as described above, and adding XT Sample Buffer (Bio-Rad, 1610791) and XT Reducing Agent (Bio-Rad, 1610792). Samples were heated at 72 °C for 5 min. Samples were then loaded onto a 4–12% Criterion XT Bis-Tris gel (Bio-Rad, 3450124) and ran at 150 V for approximately 1 h. Gels were then imaged on a Chemidoc MP imager (Bio-Rad) using orange, red, and far-red filters. Bands representing HaloTag ligand were quantified by densitometry using […]
labeling efficiency calculations, bands representing saturating chase dye fluorescence (e.g., JF549) were compared to saturating primary dye fluorescence allowing estimation of the amount of […]
Where F is the fraction of HaloTag protein labeled, Ce is the experimental chase dye fluorescence signal after incubation with pulse biotin-JF-HaloTag ligand, and Cs is the saturating chase dye fluorescence without incubation with a pulse ligand.
Neuro2a cell culture, labeling, lattice light sheet microscopy (LLSM), and confocal microscopy. Neuro2a cells (ATCC, CCL-131) were cultured in Eagle's minimum essential medium (MEM, phenol red-free; Life Technologies) supplemented with 10% (v/v) fetal bovine serum (FBS), and maintained at 37 °C in a humidified 5% (v/v) CO2 environment. Cells were transiently transfected using nucleofection (Lonza) with plasmids constitutively expressing

| Structure (SMILES) | KL–Z [1] | labeling efficiency ([2]; 100 nM pulse) | labeling efficiency ([2]; 1 µM pulse) |
| --- | --- | --- | --- |
| C[Si]1(C)c2cc(N3CC(F)C3)ccc2C2(OC(=O)c3ccc(C(=O)NCCOCCOCCCCCCCl)cc32)c2ccc(N3CC(F)C3)cc21 [6HTL, JF635–HaloTag ligand, reference compound] | 0.0048 | – | – |
| C[Si]1(C)C2=CC(=[N+]3CC(C(=O)NCCOCCOCCNC(=O)CCCC[C@@H]4SC[C@@H]5NC(=O)N[C@@H]54)C3)C=CC2=C(c2cc(C(=O)NCCOCCOCCCCCCCl)ccc2C(=O)[O-])c2ccc(N3CCC3)cc21 (stereo partly shown) [15HTL, biotin–JF646–HaloTag ligand] | 0.0086 | 13.6 ± 3.7% | 61.7 ± 6.8% |
| O=C(CCCCC1SCC2NC(=O)NC21)NCCOCCOCCNC(=O)C1C[N+](=c2ccc3c(-c4cc(C(=O)NCCOCCOCCCCCCCl)ccc4C(=O)[O-])c4ccc(N5CCC5)cc4oc-3c2)C1 (stereo not shown) [13HTL, biotin–JF549–HaloTag ligand] | 5.9 | < 3% | < 3% |
| C[Si]1(C)C2=CC(=[N+]3CC(F)(C(=O)NCCOCCOCCNC(=O)CCCC[C@@H]4SC[C@@H]5NC(=O)N[C@@H]54)C3)C=CC2=C(c2cc(C(=O)NCCOCCOCCCCCCCl)ccc2C(=O)[O-])c2ccc(N3CC(F)C3)cc21 (stereo partly shown) [16HTL, biotin–JF635–HaloTag ligand] | 0.0032 | 18.0 ± 4.9% | 69.0 ± 4.2% |
| CC1(C)C2=CC(=[N+]3CC(C(=O)NCCOCCOCCNC(=O)CCCC[C@@H]4SC[C@@H]5NC(=O)N[C@@H]54)C3)C=CC2=C(c2cc(C(=O)NCCOCCOCCCCCCCl)ccc2C(=O)[O-])c2ccc(N3CCC3)cc21 (stereo partly shown) [14HTL, biotin–JF608–HaloTag ligand] | 0.17 | 11.3 ± 6.4% | 57.7 ± 9.6% |
